Measurements published in ChEMBL document CHEMBL3745676, “Alkylamino derivatives of N-benzylpyrazine-2-carboxamide: synthesis and antimycobacterial evaluation” (Medchemcomm, 2015).

Key:
[1] = Lipophilicity, logK of the compound by RP-HPLC analysis; assay type: physicochemical
[2] = tested on: Mycobacterium tuberculosis; assay: Antimycobacterial activity against Mycobacterium tuberculosis H37Rv CNCTC My 331/88 incubated for 10 to 14 days by microplate alamar blue assay; assay type: functional
Mycobacterium kansasii = assay: Antimycobacterial activity against Mycobacterium kansasii CNCTC My 235/80 incubated for 5 to 7 days by microplate alamar blue assay; assay type: functional
[3] = Cytotoxicity against CRFK cells assessed as cell viability after 4 to 6 days by formazan-based MTS assay; set-up: species or system Felis catus; conditions: cat
[4] = Cytotoxicity against HEL cells assessed as cell viability after 4 to 6 days by microscopic analysis; assay type: cell-based; conditions: human
[5] = Cytotoxicity against human HeLa cells assessed as cell viability after 4 to 6 days by microscopic analysis; assay type: cell-based
[6] = Cytotoxicity against African green monkey Vero cells assessed as cell viability after 4 to 6 days by microscopic analysis; assay type: cell-based; conditions: chlorocebus sabaeus
[7] = Cytotoxicity against MDCK cells assessed as cell viability after 4 to 6 days by formazan-based MTS assay; set-up: species or system Canis lupus familiaris; conditions: dog
[8] = Cytotoxicity against MDCK cells assessed as cell viability after 4 to 6 days by microscopic analysis; assay type: cell-based, Canis lupus familiaris; conditions: dog
Influenza A virus [9] = assay: Antiviral activity against Influenza A virus (A/Puerto Rico/8/(H1N1)) assessed as inhibition of virus-induced cytopathic effect after 3 to 6 days by formazan-based MTS assay; assay type: functional, organism-based
Mycobacterium avium [10] = assay: Antimycobacterial activity against Mycobacterium avium CNCTC My 80/72 after 5 days by microplate alamar blue assay; assay type: functional; conditions: CNCTC My 80/72, 120 h
Mycobacterium avium [11] = assay: Antimycobacterial activity against Mycobacterium avium CNCTC My 152/73 after 5 days by microplate alamar blue assay; assay type: functional; conditions: CNCTC My 152/73, 120 h
Escherichia coli = assay: Antibacterial activity against Escherichia coli CCM 4517 after 24 to 48 hrs by broth microdilution method; assay type: functional
Pseudomonas aeruginosa = assay: Antibacterial activity against Pseudomonas aeruginosa CCM 1961 after 24 to 48 hrs by broth microdilution method; assay type: functional
Klebsiella pneumoniae [12] = assay: Antibacterial activity against Klebsiella pneumoniae D 11750/08 after 24 to 48 hrs by broth microdilution method; assay type: functional
Klebsiella pneumoniae [13] = assay: Antibacterial activity against ESBL positive Klebsiella pneumoniae J 14368/08 after 24 to 48 hrs by broth microdilution method; assay type: functional
Candida albicans = assay: Antifungal activity against Candida albicans ATCC 44859 after 24 to 48 hrs by broth microdilution method; assay type: functional
Candida tropicalis = assay: Antifungal activity against Candida tropicalis 156 after 24 to 48 hrs by broth microdilution method; assay type: functional
Pichia kudriavzevii = assay: Antifungal activity against Candida krusei E28 after 24 to 48 hrs by broth microdilution method; assay type: functional
Nakaseomyces glabratus = assay: Antifungal activity against Candida glabrata 20/I after 24 to 48 hrs by broth microdilution method; assay type: functional
Trichosporon asahii = assay: Antifungal activity against Trichosporon asahii 1188 after 24 to 48 hrs by broth microdilution method; assay type: functional
Aspergillus fumigatus = assay: Antifungal activity against Aspergillus fumigatus 231 after 24 to 48 hrs by broth microdilution method; assay type: functional
Lichtheimia corymbifera = assay: Antifungal activity against Lichtheimia corymbifera 272 after 24 to 48 hrs by broth microdilution method; assay type: functional
[14] = tested on: Trichophyton mentagrophytes; assay: Antifungal activity against Trichophyton mentagrophytes 445 after 72 to 120 hrs by broth microdilution method; assay type: functional
Influenza A virus [15] = assay: Antiviral activity against Influenza A virus (A/Puerto Rico/8/(H1N1)) assessed as inhibition of virus-induced cytopathic effect after 3 to 6 days by microscopic analysis; assay type: functional, organism-based
[16] = tested on: Mycobacterium tuberculosis; assay: Potency index, ratio of pyrazinamide MIC to compound MIC for Mycobacterium tuberculosis H37Rv CNCTC My 331/88; assay type: functional

Compound	log K [1]	MIC [2]	MIC (Mycobacterium kansasii) [µg/mL]	CC50 [3] [µM]	MCC [4] [µM]	MCC [5] [µM]	MCC [6] [µM]	CC50 [7] [µM]	MCC [8] [µM]	EC50 (Influenza A virus [9]) [µM]	MIC (Mycobacterium avium [10]) [µg/mL]	MIC (Mycobacterium avium [11]) [µg/mL]	MIC95 (Escherichia coli) [µM]	MIC95 (Pseudomonas aeruginosa) [µM]	MIC95 (Klebsiella pneumoniae [12]) [µM]	MIC95 (Klebsiella pneumoniae [13]) [µM]	MIC (Candida albicans) [µM]	MIC (Candida tropicalis) [µM]	MIC (Pichia kudriavzevii) [µM]	MIC (Nakaseomyces glabratus) [µM]	further results
CCCCCNc1cnc(C(=O)NCc2ccccc2)cn1	0.638	21 µM	> 100	> 100	> 100	> 100	> 100	> 100	> 100	3.3	> 100	> 100	> 500	> 500	> 500	> 500	> 500	> 500	> 500	> 500	MIC (Trichosporon asahii): > 500 µM; MIC (Aspergillus fumigatus): > 500 µM; MIC (Lichtheimia corymbifera): > 500 µM; MIC [14]: > 500 µM; EC50 (Influenza A virus [15]): 37 µM
CCCCCCNc1cnc(C(=O)NCc2ccccc2)cn1	0.859	10 µM	> 100	> 100	> 100	> 100	≥ 100	> 100	> 100	62	> 100	> 100	> 500	> 500	> 500	> 500	> 500	> 500	> 500	> 500	MIC (Trichosporon asahii): > 500 µM; MIC (Aspergillus fumigatus): > 500 µM; MIC (Lichtheimia corymbifera): > 500 µM; MIC [14]: > 500 µM; EC50 (Influenza A virus [15]): 52 µM; Ratio [16]: <=20
CCCCCCCCNc1nccnc1C(=O)NCc1ccccc1	2.054	> 100 µg/mL	> 100	> 100	> 100	> 100	> 100	> 100	100	> 100	> 100	> 100	> 500	> 500	> 500	> 500	> 500	> 500	> 500	> 500	MIC (Trichosporon asahii): > 500 µM; MIC (Aspergillus fumigatus): > 500 µM; MIC (Lichtheimia corymbifera): > 500 µM; MIC [14]: > 500 µM; EC50 (Influenza A virus [15]): > 100 µM
O=C(NCc1ccccc1)c1cncc(NCc2ccccc2)n1	0.483	157 µM	> 100								> 100	> 100									
CCCCNc1nccnc1C(=O)NCc1ccccc1	1.081	> 100 µg/mL	> 100	> 100	> 100	> 100	> 100	> 100	> 100	> 100	> 100	> 100	> 500	> 500	> 500	> 500	> 500	> 500	> 500	> 500	MIC (Trichosporon asahii): > 500 µM; MIC (Aspergillus fumigatus): > 500 µM; MIC (Lichtheimia corymbifera): > 500 µM; MIC [14]: > 500 µM; EC50 (Influenza A virus [15]): > 100 µM
CCCCCCCNc1nccnc1C(=O)NCc1ccccc1	1.809	> 100 µg/mL	> 100	> 100	100	> 100	> 100	> 100	100	> 100	> 100	> 100	> 500	> 500	> 500	> 500	> 500	> 500	> 500	> 500	MIC (Trichosporon asahii): > 500 µM; MIC (Aspergillus fumigatus): > 500 µM; MIC (Lichtheimia corymbifera): > 500 µM; MIC [14]: > 500 µM; EC50 (Influenza A virus [15]): > 100 µM
CCCCCCNc1nccnc1C(=O)NCc1ccccc1	1.564	> 100 µg/mL	> 100	> 100	100	> 100	> 100	> 100	100	> 100	> 100	> 100	> 500	> 500	> 500	> 500	> 500	> 500	> 500	> 500	MIC (Trichosporon asahii): > 500 µM; MIC (Aspergillus fumigatus): > 500 µM; MIC (Lichtheimia corymbifera): > 500 µM; MIC [14]: > 500 µM; EC50 (Influenza A virus [15]): > 100 µM
CCCCCNc1nccnc1C(=O)NCc1ccccc1	1.321	> 100 µg/mL	> 100	> 100	≥ 100	> 100	> 100	> 100	≥ 20	> 100	> 100	> 100	> 500	> 500	> 500	> 500	> 500	> 500	> 500	> 500	MIC (Trichosporon asahii): > 500 µM; MIC (Aspergillus fumigatus): > 500 µM; MIC (Lichtheimia corymbifera): > 500 µM; MIC [14]: > 500 µM; EC50 (Influenza A virus [15]): > 100 µM
